Activity calls are given as the source filed them. The rule behind the calls is not given here.
System: CCRIS mutagenicity, Ames/micronucleus/aberration tests
Assay: CCRIS mutagenicity studies
[1] = Test System: AMES SALMONELLA TYPHIMURIUM, Strain/Indicator: TA98, Metabolic Activation: NONE, Method: PREINCUBATION
[2] = Test System: AMES SALMONELLA TYPHIMURIUM, Strain/Indicator: TA100, Metabolic Activation: NONE, Method: PREINCUBATION
[3] = Test System: AMES SALMONELLA TYPHIMURIUM, Strain/Indicator: TA98, Metabolic Activation: NONE, Method: STANDARD PLATE
[4] = Test System: AMES SALMONELLA TYPHIMURIUM, Strain/Indicator: TA100, Metabolic Activation: NONE, Method: STANDARD PLATE
[5] = Test System: AMES SALMONELLA TYPHIMURIUM, Strain/Indicator: TA98, Metabolic Activation: RAT, LIVER, S-9, AROCLOR 1254, Method: PREINCUBATION
[6] = Test System: AMES SALMONELLA TYPHIMURIUM, Strain/Indicator: TA100, Metabolic Activation: RAT, LIVER, S-9, AROCLOR 1254, Method: PREINCUBATION

Measured: mutagenic call

O=C1c2ccccc2-c2ccc3c4c(ccc1c24)-c1ccccc1C3=O
inactive: Test System: AMES SALMONELLA TYPHIMURIUM, Strain/Indicator: TA98, Metabolic Activation: HAMSTER, LIVER, S-9, AROCLOR 1254 (10%), Method: PREINCUBATION inactive; negative | [1] inactive; negative | Test System: AMES SALMONELLA TYPHIMURIUM, Strain/Indicator: TA98, Metabolic Activation: RAT, LIVER, S-9, AROCLOR 1254 (10%), Method: PREINCUBATION inactive; negative | Test System: AMES SALMONELLA TYPHIMURIUM, Strain/Indicator: TA100, Metabolic Activation: HAMSTER, LIVER, S-9, AROCLOR 1254 (10%), Method: PREINCUBATION inactive; negative | [2] inactive; negative | Test System: AMES SALMONELLA TYPHIMURIUM, Strain/Indicator: TA100, Metabolic Activation: RAT, LIVER, S-9, AROCLOR 1254 (10%), Method: PREINCUBATION inactive; negative | Test System: AMES SALMONELLA TYPHIMURIUM, Strain/Indicator: TA1535, Metabolic Activation: HAMSTER, LIVER, S-9, AROCLOR 1254 (10%), Method: PREINCUBATION inactive; negative | Test System: AMES SALMONELLA TYPHIMURIUM, Strain/Indicator: TA1535, Metabolic Activation: NONE, Method: PREINCUBATION inactive; negative | Test System: AMES SALMONELLA TYPHIMURIUM, Strain/Indicator: TA1535, Metabolic Activation: RAT, LIVER, S-9, AROCLOR 1254 (10%), Method: PREINCUBATION inactive; negative | Test System: AMES SALMONELLA TYPHIMURIUM, Strain/Indicator: TA1537, Metabolic Activation: HAMSTER, LIVER, S-9, AROCLOR 1254 (10%), Method: PREINCUBATION inactive; negative | Test System: AMES SALMONELLA TYPHIMURIUM, Strain/Indicator: TA1537, Metabolic Activation: NONE, Method: PREINCUBATION inactive; negative | Test System: AMES SALMONELLA TYPHIMURIUM, Strain/Indicator: TA1537, Metabolic Activation: RAT, LIVER, S-9, AROCLOR 1254 (10%), Method: PREINCUBATION inactive; negative
active: Test System: MOUSE LYMPHOMA, Strain/Indicator: L5178Y (TK+/TK-), Metabolic Activation: RAT, LIVER, S-9, AROCLOR, Method: SUSPENSION/PLATE active; positive

O=C(Cl)C(Cl)Cl
inactive: Test System: AMES SALMONELLA TYPHIMURIUM, Strain/Indicator: TA98, Metabolic Activation: HAMSTER, LIVER, S-9, AROCLOR 1254 (30%), Method: PREINCUBATION inactive; negative | [1] inactive; negative | Test System: AMES SALMONELLA TYPHIMURIUM, Strain/Indicator: TA98, Metabolic Activation: RAT, LIVER, S-9, AROCLOR 1254 (30%), Method: PREINCUBATION inactive; negative | Test System: AMES SALMONELLA TYPHIMURIUM, Strain/Indicator: TA100, Metabolic Activation: HAMSTER, LIVER, S-9, AROCLOR 1254 (30%), Method: PREINCUBATION inactive; negative | Test System: AMES SALMONELLA TYPHIMURIUM, Strain/Indicator: TA100, Metabolic Activation: RAT, LIVER, S-9, AROCLOR 1254 (30%), Method: PREINCUBATION inactive; negative | Test System: AMES SALMONELLA TYPHIMURIUM, Strain/Indicator: TA100, Metabolic Activation: RAT, LIVER, S-9, AROCLOR 1254, Method: BAG VAPORIZATION inactive; negative
active: Test System: AMES SALMONELLA TYPHIMURIUM, Strain/Indicator: TA100, Metabolic Activation: NONE, Method: BAG VAPORIZATION active; positive | [2] active; positive

C/C=C1/C[C@@H](C)[C@@](C)(O)C(=O)OC/C2=C/CN(C)CC[C@@H](OC1=O)C2=O
active: Test System: AMES SALMONELLA TYPHIMURIUM, Strain/Indicator: TA100, Metabolic Activation: HAMSTER, LIVER, S-9, PCB, Method: PREINCUBATION active; positive | Test System: AMES SALMONELLA TYPHIMURIUM, Strain/Indicator: TA100, Metabolic Activation: RAT, LIVER, S-9, PCB, Method: PREINCUBATION active; positive | Test System: UDS HAMSTER HEPATOCYTES, Strain/Indicator: THY INCORP, Metabolic Activation: NONE, Method: AUTORADIOGRAPHY active; positive | Test System: UDS MOUSE HEPATOCYTES, Strain/Indicator: THY INCORP, Metabolic Activation: NONE, Method: AUTORADIOGRAPHY active; positive | Test System: UDS RAT HEPATOCYTES, Strain/Indicator: THY INCORP, Metabolic Activation: NONE, Method: AUTORADIOGRAPHY active; positive

Cc1ccc([N+](=O)[O-])c(C)c1
inactive: [1] inactive; negative | Test System: AMES SALMONELLA TYPHIMURIUM, Strain/Indicator: TA98, Metabolic Activation: RAT, LIVER, S-9, KANECHLOR 500, Method: PREINCUBATION inactive; negative | [2] inactive; negative

CC(=O)Nc1ccc(Oc2ccc(NC(C)=O)cc2)cc1
inactive: [3] inactive; negative | Test System: AMES SALMONELLA TYPHIMURIUM, Strain/Indicator: TA98, Metabolic Activation: RAT, LIVER, S-9, PCB, Method: STANDARD PLATE inactive; negative | [4] inactive; negative | Test System: AMES SALMONELLA TYPHIMURIUM, Strain/Indicator: TA100, Metabolic Activation: RAT, LIVER, S-9, PCB, Method: STANDARD PLATE inactive; negative

COc1cc2c3c(c1OC)-c1cc4c(cc1C[C@@H]3N(C)CC2)OCO4
active: Test System: AMES SALMONELLA TYPHIMURIUM, Strain/Indicator: TA98, Metabolic Activation: RAT, LIVER, S-9, PHENOBARBITAL AND BETA-NAPHTHOFLAVONE, Method: PREINCUBATION active; positive | Test System: AMES SALMONELLA TYPHIMURIUM, Strain/Indicator: TA100, Metabolic Activation: RAT, LIVER, S-9, PHENOBARBITAL AND BETA-NAPHTHOFLAVONE, Method: PREINCUBATION active; positive

CN(Cc1cccc(C(F)(F)F)c1)N=O
inactive: Test System: AMES SALMONELLA TYPHIMURIUM, Strain/Indicator: TA1535, Metabolic Activation: NONE, Method: STANDARD PLATE inactive; negative
active: Test System: AMES SALMONELLA TYPHIMURIUM, Strain/Indicator: TA1535, Metabolic Activation: HAMSTER, LIVER, S-9, AROCLOR 1254, Method: STANDARD PLATE active; positive

Nc1ccc2nc3ccccn3c2n1
inactive: Test System: AMES SALMONELLA TYPHIMURIUM, Strain/Indicator: TA97, Metabolic Activation: NONE, Method: STANDARD PLATE inactive; negative | Test System: AMES SALMONELLA TYPHIMURIUM, Strain/Indicator: TA98, Metabolic Activation: MOUSE, LIVER, MICROSOMES, Method: STANDARD PLATE inactive; negative | [3] inactive; negative | Test System: AMES SALMONELLA TYPHIMURIUM, Strain/Indicator: TA98, Metabolic Activation: RAT, LIVER, CYTOSOL, AROCLOR 1254, Method: STANDARD PLATE inactive; negative | Test System: AMES SALMONELLA TYPHIMURIUM, Strain/Indicator: TA98, Metabolic Activation: RAT, LIVER, MICROSOMES, AROCLOR 1254, Method: STANDARD PLATE inactive; negative | [4] inactive; negative
active: Test System: AMES SALMONELLA TYPHIMURIUM, Strain/Indicator: TA97, Metabolic Activation: RAT, LIVER, S-9, AROCLOR 1254, Method: STANDARD PLATE active; positive | Test System: AMES SALMONELLA TYPHIMURIUM, Strain/Indicator: TA98, Metabolic Activation: MONKEY, LIVER, S-9, Method: PREINCUBATION active; positive | Test System: AMES SALMONELLA TYPHIMURIUM, Strain/Indicator: TA98, Metabolic Activation: MOUSE, LIVER, MICROSOMES, TCDD, Method: STANDARD PLATE active; positive | [5] active; positive | Test System: AMES SALMONELLA TYPHIMURIUM, Strain/Indicator: TA98, Metabolic Activation: RAT, LIVER, S-9, AROCLOR 1254, Method: STANDARD PLATE active; positive | [6] active; positive | Test System: AMES SALMONELLA TYPHIMURIUM, Strain/Indicator: TA100, Metabolic Activation: RAT, LIVER, S-9, AROCLOR 1254, Method: STANDARD PLATE active; positive | Test System: AMES SALMONELLA TYPHIMURIUM, Strain/Indicator: TA100, Metabolic Activation: RAT, LIVER, S-9, N-BENZYLIMIDAZOLE, Method: PREINCUBATION active; positive | Test System: AMES SALMONELLA TYPHIMURIUM, Strain/Indicator: YG1019, Metabolic Activation: RAT LIVER S-9, AROCLOR, Method: PREINCUBATION active; positive

OCc1cc2ccc3cccc4ccc(c1)c2c34
active: Test System: AMES SALMONELLA TYPHIMURIUM, Strain/Indicator: TA98, Metabolic Activation: HUMAN, LIVER, CYTOSOL, PAPS, Method: PREINCUBATION active; positive

CCN(CC)S(=O)(=O)c1ccc(NC(C)=O)cc1
inactive: [1] inactive; negative | [5] inactive; negative | [2] inactive; negative | [6] inactive; negative

Source: PubChem BioAssay AID1259407 (Chemical Carcinogenesis Research Information System (CCRIS), 2018)
